In EP4711369A1, “1H-[1,2,3]TRIAZOLO[4,5-H]QUINAZOLINE COMPOUNDS AS PROTEIN KINASE INHIBITORS” (Chengdu Cynogen Bio-Pharmaceutical Technology Co., Ltd., priority 2023, dated 2024):

Assays:
[1] = test system: human acute myeloid leukemia MV-4-11 cells; assay: Assay of cell proliferation (CellTiter-Glo); type: cell-based; conditions: MV4-11, 144 h, 6 days, read-out: MV-4-11 IC50 of cell proliferation inhibitory activity
How it was run: (§1)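 Cells seeded per line at growth-adapted densities, treated 6 days at 37 °C/5% CO2 with nine 3-fold dilutions (10 µM to 0.1 nM final, 0.5% DMSO). Viability by CellTiter-Glo luminescence; IC50 from four-parameter fit.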

[2] = test system: human gastric cancer MKN1 cells; assay: Assay of cell proliferation (CellTiter-Glo); type: cell-based; conditions: Homo sapiens, MKN-1, 144 h; MNK1, 6 days; read-out: MKN1 IC50 of cell proliferation inhibitory activity
How it was run: as §1

[3] = test system: human breast cancer HCC1806 cells; assay: Assay of cell proliferation (CellTiter-Glo); type: cell-based; conditions: Homo sapiens, 144 h, 6 days, read-out: HCC1806 IC50 of cell proliferation inhibitory activity
How it was run: as §1

[4] = test system: Human ovarian cancer OVCAR3 cells; assay: Assay of cell proliferation (CellTiter-Glo); type: cell-based; conditions: Homo sapiens, OVCAR-3, 144 h, 6 days, read-out: OVCAR3 IC50 of cell proliferation inhibitory activity
How it was run: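 OVCAR3 cells, 2000/well in RPMI 1640 with 20% FBS, treated with nine 3-fold dilutions from 10 µM to 0.1 nM (0.5% DMSO) for 6 days at 37 °C. Viability by CellTiter-Glo luminescence; IC50 by four-parameter fit.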

[5] = biological target: CDK4/cyclin D1 (Homo sapiens, UniProt P11802); assay: Assay of kinase activity (ADP-Glo); type: biochemical; conditions: kinase inhibitory activity
Chain of CDK4/cyclin D1 (P11802 whole entry, species assumed): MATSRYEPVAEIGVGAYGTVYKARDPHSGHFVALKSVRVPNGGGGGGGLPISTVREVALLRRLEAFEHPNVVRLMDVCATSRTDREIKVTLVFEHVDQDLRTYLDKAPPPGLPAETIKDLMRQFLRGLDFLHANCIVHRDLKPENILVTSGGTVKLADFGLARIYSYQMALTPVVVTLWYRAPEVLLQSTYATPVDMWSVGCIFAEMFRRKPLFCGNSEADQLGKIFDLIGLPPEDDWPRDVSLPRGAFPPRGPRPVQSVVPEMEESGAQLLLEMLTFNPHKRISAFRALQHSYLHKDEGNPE
Chain of CDK4/cyclin D1 (P24385 whole entry partner, species assumed): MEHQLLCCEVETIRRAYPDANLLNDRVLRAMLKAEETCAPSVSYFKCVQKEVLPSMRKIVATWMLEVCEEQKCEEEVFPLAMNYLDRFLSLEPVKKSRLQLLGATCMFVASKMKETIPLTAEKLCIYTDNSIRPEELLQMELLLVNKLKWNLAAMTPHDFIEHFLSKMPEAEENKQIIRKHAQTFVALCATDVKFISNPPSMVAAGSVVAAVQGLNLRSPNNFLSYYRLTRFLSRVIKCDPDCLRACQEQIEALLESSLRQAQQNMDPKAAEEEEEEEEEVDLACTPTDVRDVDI
How it was run: (§2)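 Kinase preincubated 10 min with compound in 50 mM Hepes, 10 mM MgCl2, 0.01% Brij35, 2 mM DTT, then substrate/ATP added for 60 min at 25 °C. ADP formed measured by ADP-Glo luminescence; IC50 by nonlinear concentration-response fitting.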

[6] = biological target: CDK2/cyclin E (Homo sapiens, UniProt P24941); assay: Assay of kinase activity (ADP-Glo); type: biochemical; conditions: kinase inhibitory activity, read-out: CDK2/E1 IC50
How it was run: as §2

[7] = biological target: CDK6/cyclin D3 (Homo sapiens, UniProt Q00534); assay: Assay of kinase activity (ADP-Glo); type: biochemical; conditions: kinase inhibitory activity
Chain of CDK6/cyclin D3 (Q00534 whole entry, species assumed): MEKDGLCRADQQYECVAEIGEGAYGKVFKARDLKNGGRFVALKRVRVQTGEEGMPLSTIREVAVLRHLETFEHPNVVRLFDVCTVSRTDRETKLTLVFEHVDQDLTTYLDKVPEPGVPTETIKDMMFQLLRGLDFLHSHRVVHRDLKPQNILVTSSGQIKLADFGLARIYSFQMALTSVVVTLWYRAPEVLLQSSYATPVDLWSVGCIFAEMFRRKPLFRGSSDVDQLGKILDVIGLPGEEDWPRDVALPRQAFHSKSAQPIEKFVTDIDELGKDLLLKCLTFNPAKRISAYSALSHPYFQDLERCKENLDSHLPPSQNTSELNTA
Chain of CDK6/cyclin D3 (P30281 whole entry partner, species assumed): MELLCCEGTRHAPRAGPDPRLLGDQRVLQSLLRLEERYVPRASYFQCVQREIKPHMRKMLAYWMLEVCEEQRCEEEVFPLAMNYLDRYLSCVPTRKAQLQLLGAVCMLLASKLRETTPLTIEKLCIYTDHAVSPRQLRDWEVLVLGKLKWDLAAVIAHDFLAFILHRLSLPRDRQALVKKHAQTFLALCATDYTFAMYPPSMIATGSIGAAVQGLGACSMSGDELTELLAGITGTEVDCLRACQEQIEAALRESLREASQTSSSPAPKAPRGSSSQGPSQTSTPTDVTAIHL
How it was run: (§3)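 ADP production quantified by luminescence after 60 min kinase reaction at 25 °C, started with substrate/ATP following 10 min enzyme-compound preincubation. Buffer: 50 mM Hepes, 10 mM MgCl2, 0.01% Brij35, 2 mM DTT. IC50 obtained by nonlinear curve fitting of inhibition data.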

[8] = biological target: CDK9/cyclin T1 (Homo sapiens, UniProt P50750); assay: Assay of kinase activity (ADP-Glo); type: biochemical; conditions: kinase inhibitory activity
Chain of CDK9/cyclin T1 (P50750 whole entry, species assumed): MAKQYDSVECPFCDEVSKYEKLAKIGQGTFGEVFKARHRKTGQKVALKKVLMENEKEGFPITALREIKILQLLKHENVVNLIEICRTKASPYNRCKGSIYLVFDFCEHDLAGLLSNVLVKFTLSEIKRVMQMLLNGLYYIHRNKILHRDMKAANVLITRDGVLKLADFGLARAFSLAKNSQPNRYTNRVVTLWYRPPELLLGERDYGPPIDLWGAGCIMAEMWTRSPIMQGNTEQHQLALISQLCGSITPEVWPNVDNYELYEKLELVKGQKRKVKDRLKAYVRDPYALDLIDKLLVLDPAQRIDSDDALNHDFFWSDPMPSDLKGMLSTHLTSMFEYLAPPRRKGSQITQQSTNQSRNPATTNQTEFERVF
Chain of CDK9/cyclin T1 (O60563 whole entry partner, species assumed): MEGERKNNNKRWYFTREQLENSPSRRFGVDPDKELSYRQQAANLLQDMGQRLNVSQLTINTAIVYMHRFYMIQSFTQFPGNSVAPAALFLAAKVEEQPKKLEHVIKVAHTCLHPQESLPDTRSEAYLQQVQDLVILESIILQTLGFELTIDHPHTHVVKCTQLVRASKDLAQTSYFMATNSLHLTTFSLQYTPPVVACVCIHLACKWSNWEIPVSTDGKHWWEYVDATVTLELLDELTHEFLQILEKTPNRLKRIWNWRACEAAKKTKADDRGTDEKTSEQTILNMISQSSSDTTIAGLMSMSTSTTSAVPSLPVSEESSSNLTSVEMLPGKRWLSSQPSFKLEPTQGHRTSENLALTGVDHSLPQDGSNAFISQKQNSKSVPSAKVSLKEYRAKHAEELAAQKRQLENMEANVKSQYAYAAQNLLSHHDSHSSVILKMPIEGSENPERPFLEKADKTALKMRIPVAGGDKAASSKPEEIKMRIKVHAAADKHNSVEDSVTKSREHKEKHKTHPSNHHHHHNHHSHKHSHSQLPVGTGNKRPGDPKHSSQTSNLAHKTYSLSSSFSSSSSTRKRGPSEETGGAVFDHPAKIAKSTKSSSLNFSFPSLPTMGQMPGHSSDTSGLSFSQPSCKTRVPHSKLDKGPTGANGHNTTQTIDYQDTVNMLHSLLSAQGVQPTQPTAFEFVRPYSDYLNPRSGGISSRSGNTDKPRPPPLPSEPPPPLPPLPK
How it was run: as §3

IC50 [1] [nM] | IC50 [2] [nM] | IC50 [3] [nM] | IC50 [4] [nM] | IC50 [5] [nM] | IC50 [6] [nM] | IC50 [7] [nM] | IC50 [8] [nM] | Compound
2 | 3 | 18 | 5 | 1 | 0.9 | 6 | 9 | C[C@@]1(O)CCC[C@H]1n1nnc2ccc3cnc(Nc4ccc(S(=O)(=O)NCCO)cc4)nc3c21 [Example I-71]
3 | 6 | 20 | 15 | 0.5 | 0.05 | 3 | 2 | C[C@@]1(O)CCC[C@H]1n1nnc2ccc3cnc(Nc4ccc(C(=O)N5CCCNCC5)cc4)nc3c21 [Example I-69, (1,4-diazepan-1-yl)(4-((1-((1R,2R)-2-hydroxy-2-methylcyclopentyl)-1H-[1,2,3]triazolo[4,5-H]quinazolin-8-yl)amino)phenyl)methanone]
4 | 57 | 112 | 73 | 3 | 0.4 | 35 | 24 | CC(C)n1nnc2ccc3cnc(Nc4ccc(C(=O)N5C[C@@H](C)N[C@@H](C)C5)cc4)nc3c21 [Example I-23, ((3R,5S)-3,5-dimethylpiperazin-1-yl)(4-((1-isopropyl-1H-[1,2,3]triazolo[4,5-H]quinazolin-8-yl)amino)phenyl)metha none]
11 | 17 | 465 | 32 | 1 | 0.9 | 4 | 23 | C[C@@H](n1nnc2ccc3cnc(Nc4ccc(C(=O)N5CCN(C)CC5)cc4)nc3c21)C(C)(C)O [Example I-57, (R)-(4-((1-(3-Hydroxy-3-methylbutan-2-yl)-1H-[1,2,3]triazolo[4,5-H]quinazolin-8-yl)amino)phenyl)(4-methylpiperazin-1-yl)methanone]
15 | 46 | 175 | 94 | 2 | 0.3 | 12 | 8 | CC(C)n1nnc2ccc3cnc(Nc4ccc(C(=O)N5CC[C@@H](F)C5)cc4)nc3c21 [Example I-2, (R)-(3-Fluoropyrrolidin-1-yl)(4-((1-isopropyl-1H-[1,2,3]triazolo[4,5-H]quinazolin-8-yl)amino)phenyl)methanone]
2 | 5 | 6 | 7 | 0.7 | 0.09 | 19 | 2 | CC(C)n1nnc2ccc3cnc(Nc4ccc(C(=O)N5CCCN(C)CC5)cc4)nc3c21 [Example I-34, (4-((1-Isopropyl-1H-[1,2,3]triazolo[4,5-H]quinazolin-8-yl)amino)phenyl)(4-methyl-1,4-diazepan-1-yl)methanone]
6 | 23 | 109 | 39 | 1 | 1 | 16 | 3 | CC(C)n1nnc2ccc3cnc(Nc4ccc(C(=O)N5CCN[C@@H](C)C5)cc4)nc3c21 [Example I-20, (S)-(4-((1-Isopropyl-1H-[1,2,3]triazolo[4,5-H]quinazolin-8-yl)amino)phenyl)(3-methylpiperazin-1-yl)methanone]
2 | 3 | 19 | 5 | 1 | 0.2 | 26 | 45 | CC(C)n1nnc2ccc3cnc(Nc4ccc(C(=O)N5CCCNCC5)cc4)nc3c21 [Example I-33, (1,4-Diazepan-1-yl)(4-((1-isopropyl-1H-[1,2,3]triazolo[4,5-H]quinazolin-8-yl)amino)phenyl)metha none]
12 | 46 | 319 | 93 | 2 | 0.8 | 190 | 60 | CC(C)n1nnc2ccc3cnc(Nc4ccc(C(=O)N5CCC(N(C)C)CC5)c(F)c4)nc3c21 [Example I-17, (4-(Dimethylamino)piperidin-1-yl)(2-fluoro-4-((1-isopropyl-1H-[1,2,3]triazolo[4,5-H]quinazolin-8-yl)amino)phenyl)metha none]
2 | 8 | 93 | 17 | 1 | 0.8 | 15 | 6 | CN1CCN(C(=O)c2ccc(Nc3ncc4ccc5nnn([C@@H]6CCC[C@@]6(C)O)c5c4n3)cc2)CC1 [Example I-66, (4-((1-((1R,2R)-2-Hydroxy-2-methylcyclopentyl)-1H-[1,2,3]triazolo[4,5-H]quinazolin-8-yl)amino)phenyl)(4-methylpiperazin-1-yl)methanone]
5 | 13 | 137 | 45 | 2 | 1 | 21 | 46 | C[C@@]1(O)CCC[C@H]1n1nnc2ccc3cnc(Nc4ccc(C(=O)N5CCOCC5)cc4)nc3c21 [Example I-67, (4-((1-((1R,2R)-2-Hydroxy-2-methylcyclopentyl)-1H-[1,2,3]triazolo[4,5-H]quinazolin-8-yl)amino)phenyl)(morpholino)methanone]
5 | 8 | 54 | 28 | 0.5 | 0.08 | 4 | 3 | C[C@@]1(O)CCC[C@H]1n1nnc2ccc3cnc(Nc4ccc(C(=O)N5CC[C@H](N)C5)cc4)nc3c21 [Example I-62, ((S)-3-Aminopyrrolidin-1-yl)(4-((1-((1R,2R)-2-hydroxy-2-methylcyclopentyl)-1H-[1,2,3]triazolo[4,5-H]quinazolin-8-yl)amino)phenyl)methanone]
18 | 127 | 543 | 389 | 2 | 1 | 15 | 46 | C[C@@H](n1nnc2ccc3cnc(Nc4ccc(C(=O)N5CCS(=O)(=O)CC5)cc4)nc3c21)C(C)(C)O [Example I-59, (R)-(1,1-Dioxothiomorpholino)(4-((1-(3-hydroxy-3-methylbutan-2-yl)-1H-[1,2,3]triazolo[4,5-H]quinazolin-8-yl)amino)phenyl)methanone]
23 | 129 | 247 | 214 | 5 | 2 | 35 | 25 | CC(C)n1nnc2ccc3cnc(Nc4ccc(C(=O)N5CCC(F)CC5)cc4)nc3c21 [Example I-18, (4-Fluoropiperidin-1-yl)(4-((1-isopropyl-1H-[1,2,3]triazolo[4,5-H]quinazolin-8-yl)amino)phenyl)metha none]
7 | 49 | 268 | 192 | 2 | 1 | 16 | 8 | C[C@@H](n1nnc2ccc3cnc(Nc4ccc(C(=O)N5CC[C@H](N)C5)cc4)nc3c21)C(C)(C)O [Example I-54, ((S)-3-Aminopyrrolidin-1-yl)(4-((1-((R)-3-hydroxy-3-methylbutan-2-yl)-1H-[1,2,3]triazolo[4,5-h]quinazolin-8-yl)amino)phenyl)methanone]
19 | 90 | 656 | 313 | 2 | 1 | 9 | 19 | C[C@@H](n1nnc2ccc3cnc(Nc4ccc(C(=O)N5CCOCC5)cc4)nc3c21)C(C)(C)O [Example I-58, (R)-(4-((1-(3-Hydroxy-3-methylbutan-2-yl)-1H-[1,2,3]triazolo[4,5-H]quinazolin-8-yl)amino)phenyl)(morpholino)methanone]

Compound | IC50 [1] [nM] | IC50 [2] [nM] | IC50 [3] [nM] | IC50 [4] [nM] | IC50 [5] [nM] | IC50 [6] [nM] | IC50 [7] [nM] | IC50 [8] [nM]
CC(C)n1nnc2ccc3cnc(Nc4ccc(C(=O)N5CC6CC(C5)N6)cc4)nc3c21 [Example I-24, (3,6-Diazabicyclo[3.1.1]heptan-3-yl)(4-((1-isopropyl-1H-[1,2,3]triazolo[4,5-H]quinazolin-8-yl)amino)phenyl)metha none] | 3 | 6 | 44 | 18 | 1 | 0.1 | 26 | 8
